In PMC8285431, “Machine learning designs non-hemolytic antimicrobial peptides” (Chemical Science, 2021):
Ends that are not written are not given here.

How the values were obtained:
[1] = test system: human red blood cells; settings: 10 mM phosphate buffer saline pH 7.4, 25 °C, 4 h, visual inspection, 0.1% Triton X-100 positive control
Description: Compounds were subjected to a hemolysis assay to assess the hemolytic effect on human red blood cells (hRBCs). The blood was obtained from Interregionale Blutspende SRK AG, Bern, Switzerland. 1.5 mL of whole blood was centrifuged at 3000 rpm for 15 minutes at 4 °C. The plasma was discarded, and the hRBC pellet was re-suspended in 5 mL of PBS (pH 7.4) then centrifuged at 3000 rpm for 5 minutes at 4 °C. The washing of hRBC was repeated three times and the remaining pellet was re-suspended in 10 mL of PBS.
The samples were prepared as the initial concentration of 4000 μg mL^−1 in PBS, added to the first well of 96-well microtiter plate (TPP, untreated) and diluted serially by 1/2. […] Controls on each plate included a blank medium control (PBS 100 μL) and a hemolytic activity control (0.1% Triton X-100). 100 μL of hRBC suspension was incubated with 100 μL of each sample in PBS in 96-well plate (Nunc 96-Well Polystyrene Conical Bottom MicroWell Plates). After the plates were incubated for 4 h at room temperature, minimal hemolytic concentration (MHC) was determined by visual inspection of the wells. 100 μL supernatants was carefully pipetted to a flat bottom, clear wells plate (TPP® tissue culture plates, polystyrene).

[2] = test system: P. aeruginosa PA14 4.13 (phoQ); assay: MIC, broth microdilution; format: cell-based; settings: spontaneous mutant, polymyxin B resistant; Müller–Hinton medium, 16–20 h, 37 °C; two independent experiments in duplicate
Description: (§1) To determine the minimal inhibitory concentration (MIC), the broth microdilution method was used. A colony of bacteria was grown in LB (Lysogeny broth) medium overnight at 37 °C. The samples were prepared as stock solutions of 8 mg mL^−1 in H2O, diluted to the initial concentration of 64 or 128 μg mL^−1 in 300 μL Mueller–Hinton (MH) medium, added to the first well of 96-well microtiter plate (TPP, untreated), and diluted serially by 1/2. The concentration of the bacteria was quantified by measuring absorbance at 600 nm and diluted to OD600 = 0.022 in MH medium. The sample solutions (150 μL) were mixed with 4 μL diluted bacterial suspension with a final inoculation of about of 5 × 10^5 CFU. The plates were incubated at 37 °C until satisfactory growth (∼18 h). For each test, two columns of the plate were kept for sterility control (broth only) and growth control (broth with bacterial inoculums, no antibiotics). The MIC was defined as the lowest concentration of the peptide dendrimer that inhibited visible growth of the tested bacteria, as detected after treatment with MTT.

[3] = test system: P. aeruginosa PA14; assay: MIC, broth microdilution; format: cell-based; settings: Gram-negative; Müller–Hinton medium, 16–20 h, 37 °C; two independent experiments in duplicate
Description: as §1

[4] = test system: P. aeruginosa PA14 2P4 (pmrB); assay: MIC, broth microdilution; format: cell-based; settings: spontaneous mutant, polymyxin B resistant; Müller–Hinton medium, 16–20 h, 37 °C; two independent experiments in duplicate
Description: as §1

[5] = test system: P. aeruginosa PA14 4.18 (pmrB); assay: MIC, broth microdilution; format: cell-based; settings: spontaneous mutant, polymyxin B resistant; Müller–Hinton medium, 16–20 h, 37 °C; two independent experiments in duplicate
Description: as §1

[6] = test system: K. pneumoniae NCTC148; format: cell-based, Klebsiella pneumoniae; settings: MDR Gram-negative strain; Müller–Hinton medium, 16–20 h, 37 °C; two independent experiments in duplicate
Description: as §1

[7] = test system: K. pneumoniae (OXA-48); format: cell-based, Klebsiella pneumoniae; settings: MDR Gram-negative strain; Müller–Hinton medium, 16–20 h, 37 °C; two independent experiments in duplicate
Description: as §1

[8] = test system: P. aeruginosa ZEM9A; format: cell-based; settings: MDR Gram-negative strain; Müller–Hinton medium, 16–20 h, 37 °C; two independent experiments in duplicate
Description: as §1

[9] = test system: E. cloacae; format: cell-based; settings: MDR Gram-negative strain; Müller–Hinton medium, 16–20 h, 37 °C; two independent experiments in duplicate
Description: as §1

[10] = test system: S. maltophilia; format: cell-based; settings: MDR Gram-negative strain; Müller–Hinton medium, 16–20 h, 37 °C; two independent experiments in duplicate
Description: as §1

[11] = test system: B. cenocepacia; format: cell-based; settings: MDR Gram-negative strain; Müller–Hinton medium, 16–20 h, 37 °C; two independent experiments in duplicate
Description: as §1

[12] = test system: S. epidermidis; format: cell-based; settings: MDR Gram-positive strain; Müller–Hinton medium, 16–20 h, 37 °C; two independent experiments in duplicate; in µg/mL
Description: as §1

[13] = test system: P. aeruginosa ZEM-1A; format: cell-based; settings: MDR Gram-negative strain; Müller–Hinton medium, 16–20 h, 37 °C; two independent experiments in duplicate
Description: as §1

[14] = test system: E. coli; assay: MIC, broth microdilution; format: cell-based, Escherichia coli; settings: Mueller–Hinton medium, 16–20 h at 37 °C, trifluoroacetate salts
Description: (§2) We synthesized the selected 14 GN and 14 GP peptides by solid phase peptide synthesis and evaluated the activity of their HPLC-purified trifluoroacetate salts by determining minimum inhibitory concentrations (MIC) against bacteria by broth microdilution assay in Muller–Hinton medium and minimum hemolysis concentrations (MHC) on human red blood cells by serial dilution in phosphate buffer saline (Table 1).
as §1, with “For each test, two columns of the plate were kept for sterility control (broth only) and growth control (broth with bacterial inoculums, no antibiotics).” left out

[15] = test system: P. aeruginosa; assay: MIC, broth microdilution; format: cell-based, Pseudomonas aeruginosa; settings: Mueller–Hinton medium, 16–20 h at 37 °C, trifluoroacetate salts
Description: as §2
as §1, with “For each test, two columns of the plate were kept for sterility control (broth only) and growth control (broth with bacterial inoculums, no antibiotics).” left out

[16] = test system: A. baumannii; assay: MIC, broth microdilution; format: cell-based, Acinetobacter baumannii; settings: Mueller–Hinton medium, 16–20 h at 37 °C, trifluoroacetate salts
Description: as §2
as §1, with “For each test, two columns of the plate were kept for sterility control (broth only) and growth control (broth with bacterial inoculums, no antibiotics).” left out

[17] = test system: MRSA; assay: MIC, broth microdilution; format: cell-based, methicillin-resistant Staphylococcus aureus; settings: Mueller–Hinton medium, 16–20 h at 37 °C, trifluoroacetate salts
Description: as §2
as §1, with “For each test, two columns of the plate were kept for sterility control (broth only) and growth control (broth with bacterial inoculums, no antibiotics).” left out

Substance	MHC (minimal hemolytic concentration) [1]	other results
LNALKKVFQKIH-NH2 [GP14]	>2000 µg/mL	–
ARKFRRLVKKLR-NH2 [GP11]	>2000 µg/mL	–
Polymyxin B	–	MIC P. aeruginosa PA14 4.13 (phoQ) [2]: 1 µg/mL; MIC P. aeruginosa PA14 [3]: < 0.5 µg/mL; MIC P. aeruginosa PA14 2P4 (pmrB) [4]: 2 µg/mL; MIC P. aeruginosa PA14 4.18 (pmrB) [5]: 2 µg/mL; MIC K. pneumoniae NCTC148 [6]: 1 µg/mL; MIC K. pneumoniae (OXA-48) [7]: 1 µg/mL; MIC P. aeruginosa ZEM9A [8]: 4 µg/mL; MIC E. cloacae [9]: 1 µg/mL; MIC S. maltophilia [10]: 0.5 µg/mL; MIC B. cenocepacia [11]: > 64 µg/mL; MIC S. epidermidis [12]: 32–64; MIC P. aeruginosa ZEM-1A [13]: 0.5 µg/mL
IDKWKAAFKKIKNLF-NH2 [GN3]	500 µg/mL	–
RWRWPILGRILR-NH2 [GP2]	500 µg/mL	–
GNWRKIVHKIKKAG-NH2 [GN12]	>2000 µg/mL	–
LRKARRLVKKLA-NH2 [GP12]	>2000 µg/mL	–
GRIKRIRKIIHKY-NH2 [GP8]	>2000 µg/mL	–
ARKWRKFLKKI-NH2 [GP7]	>2000 µg/mL	–
AGRLQKVFKVIAK-NH2 [GN13]	>2000 µg/mL	–
AKRIRKLIKKIFKKI-NH2 [GN1]	>2000 µg/mL	–
LRKFWKKIRKFLKKI-NH2 [GN8]	62.5 µg/mL	–
IHKLAKLAKNVL-NH2 [GN14]	>2000 µg/mL	–
KFFRKLKKLVKK-NH2 [GN5]	>2000 µg/mL	–
RLRKKWRKLKKLL-NH2 [GN6]	2000 µg/mL	–
KRLWKRIYRLLKK-NH2 [GN9]	250 µg/mL	–
AKKVVKKIYKRFQK-NH2 [GP10]	>2000 µg/mL	–
FLHSIGKAIGRLLR-NH2 [GP3]	250 µg/mL	–
RRWKWRRKIKKWL-NH2 [GN2]	1000 µg/mL	–
KRLWKIRQRIAK-NH2 [GP13]	>2000 µg/mL	–
GIGAVLNVAKKLL-NH2 [GP4]	>2000 µg/mL	–
LNALKKVFQKIRQGL [GN4, ML-generated linear peptide carboxamide from the P. aeruginosa/A. baumannii model]	>2000 µg/mL	MIC E. coli [14]: 4 µg/mL; MIC P. aeruginosa [15]: 32 µg/mL; MIC A. baumannii [16]: 16 µg/mL; MIC MRSA [17]: >64 µg/mL
IRRIRKKIKKIFKKI-NH2 [GN10]	>2000 µg/mL	–
FLKAVKKLIPSLF-NH2 [GP1]	2000 µg/mL	–
KVARFLKKFFR-NH2 [GP5]	>2000 µg/mL	–
KRIRKWVRRILKKL-NH2 [GN7]	250 µg/mL	–
LKKLWKRIIKVGR-NH2 [GP6]	>2000 µg/mL	–
LRKARRLLKKLRARL-NH2 [GN11]	>2000 µg/mL	–
ARKKWRKRLKKLKI-NH2 [GP9]	>2000 µg/mL	–
